# Experimental data: US8629283B2, “Compounds that modulate negative-sense, single-stranded RNA virus replication and uses thereof” (Icahn School of Medicine at Mount Sinai, priority 2008, dated 2014)
# Read-outs that look alike come from different tables or passages of the source.
# Tests used:
# influenza A/WSN/33 virus [1] = type: cell-based
# [2] = test system: influenza A/Moscow/10/99 virus; type: cell-based
# influenza A/WSN/33 virus [3] = test system: influenza A/WSN/33 virus
# [4] = test system: influenza B/Yamagata/88 virus; type: cell-based
# [5] = test system: influenza A/Wyoming/03/2003 virus; type: cell-based
# [6] = test system: Newcastle disease virus (NDV/B1); type: cell-based
# [7] = test system: vesicular stomatitis virus (VSV); type: cell-based
# caspase-3 = conditions: human, 6 h
# [8] = target: influenza viral RNA polymerase (Influenza A virus, UniProt P03427+P03430+P15659); type: cell-based
# influenza A/WSN/33 virus [9] = assay: microbe, parasite or virus in culture; conditions: A549, 24 h
molecule,measurement,setting,value
C[C@H]1O[C@@H](O[C@H]2[C@@H](O)C[C@H](O[C@H]3[C@@H](O)C[C@H](O[C@H]4CC[C@@]5(C)[C@H](CC[C@@H]6[C@@H]5C[C@@H](O)[C@]5(C)[C@@H](C7=CC(=O)OC7)CC[C@]65O)C4)O[C@@H]3C)O[C@@H]2C)C[C@H](O)[C@@H]1O [digoxin],HTS result (luciferase signal of influenza mini-genome reporter),influenza A/WSN/33 virus [1],potential influenza virus inhibitors
C=C(C)[C@@]12O[C@@]3(c4ccccc4)O[C@@H]1[C@@H]1[C@@H]4O[C@]4(CO)[C@@H](O)[C@]4(O)C(=O)C(C)=C[C@H]4[C@@]1(O3)[C@H](C)[C@H]2OC(=O)/C=C/C=C/c1ccccc1 [mezerein],maximum viral titer compared to untreated cells,[2],significant increase
same,increase in viral titers in Vero cells,influenza A/WSN/33 virus [3],15 fold
same,increase of viral titer compared to untreated cells,influenza A/WSN/33 virus [3],17 fold
same,increase of viral titer compared to untreated cells,[4],8 fold
same,maximum viral titer compared to untreated cells,[5],significant increase
C[C@@H]1O[C@@H](O[C@H]2C[C@@H](O)[C@]3(CO)[C@H]4[C@H](O)C[C@]5(C)[C@@H](C6=CC(=O)OC6)CC[C@]5(O)[C@@H]4CC[C@]3(O)C2)[C@H](O)[C@H](O)[C@H]1O [ouabain],CC50,A549 cells; human,0.047 µM
same,concentration that maintained at least an 80% cell viability (CC20),A549 cells; human,0.02 µM
same,decrease of viral titer compared to untreated control,influenza A/WSN/33 virus [3],99.1%
same,inhibition of NDV replication,[6],significantly inhibited
same,inhibition of VSV replication,[7],significantly inhibited
same,HTS result (luciferase signal of influenza mini-genome reporter),influenza A/WSN/33 virus [1],potential influenza virus inhibitors
NC(=Nc1ccccc1)NC(=O)c1nc(Cl)c(N)nc1N [phenamil],increase of viral titer compared to untreated control,influenza A/WSN/33 virus [3],16 fold
same,"induction of apoptosis (caspase-3 activity, fluorescence vs untreated cells)",caspase-3,1.3 fold
same,HTS result (luciferase signal of influenza mini-genome reporter),influenza A/WSN/33 virus [1],increased luciferase signals
"NC(=O)c1ncn([C@@H]2O[C@H](CO)[C@@H](O)[C@H]2O)n1 [ribavirin, reference compound]",inhibition of viral RNA polymerase activity,[8],90%
CC(=O)c1c(O)c(C)c(O)c(Cc2c(O)c3c(c(C(=O)/C=C/c4ccccc4)c2O)OC(C)(C)C=C3)c1O [rottlerin],"concentrations found non-toxic / not decreasing cell viability, up to","A549 cells; A549 cells, 24 h, MTS assay",up to 1.28 μM
same,SI [CC50/IC50] selective index,influenza A/WSN/33 virus [3],39
same,reduction in viral titer compared to untreated control,influenza A/WSN/33 virus [3],93%
same,reduction in viral titer compared to untreated control,[4],80%
same,IC50,influenza A/WSN/33 virus [9]; read-out: IC50 (compound concentration of 50% inhibition of viral replication),0.46 µM
same,IC50,influenza A/WSN/33 virus [9]; read-out: IC50 (half maximal inhibitory concentration),0.465 µM
same,HTS result (luciferase signal of influenza mini-genome reporter),influenza A/WSN/33 virus [1],potential influenza virus inhibitors
C[C@]12CC[C@H]3[C@@H](CC[C@]4(O)C[C@@H](O)CC[C@]34C=O)[C@@]1(O)CC[C@@H]2C1=CC(=O)OC1 [strophanthidin],HTS result (luciferase signal of influenza mini-genome reporter),influenza A/WSN/33 virus [1],potential influenza virus inhibitors
lanatoside C,CC50,A549 cells,0.21 µM
same,concentration that maintained at least an 80% cell viability (CC20),A549 cells,0.078 µM
same,decrease of viral titer compared to untreated control,influenza A/WSN/33 virus [3],95.9%
same,inhibition of NDV replication,[6],significantly inhibited
same,inhibition of VSV replication,[7],significantly inhibited
same,HTS result (luciferase signal of influenza mini-genome reporter),influenza A/WSN/33 virus [1],potential influenza virus inhibitors
